Reference: US20230339878A1, “SLC26A3 INHIBITORS AND USE THEREOF” (THE REGENTS OF THE UNIVERSITY OF CALIFORNIA, priority 2018, published 2023)
Entries after “also recorded” stand apart in the source; their conditions may differ.

Experiments:
Type in all cases: in vivo
[1] = test system: acute hyperoxaluria in mice; assay: Acute hyperoxaluria induced by oral sodium oxalate
Experimental: The efficacy of Compound A1 (DRAinh-A250) and DRAinh-A270 were tested in models of acute hyperoxaluria and oxalate nephropathy in mice. To induce acute hyperoxaluria, mice were given sodium oxalate ([…]) with or without 5 mg/kg Compound A1 by oral gavage at zero time and urine was collected for the next 4 hours in metabolic cages. A group of mice were used as controls and treated with vehicle only (no sodium oxalate or DRA inhibitor) and their urine was collected for 4 hours in metabolic cages as well. Using the 4 hour urine samples, urine oxalate/creatinine ratio was determined to quantify urinary oxalate excretion.
Similar experiments were performed for DRAinh-A270 in the acute hyperoxaluria model. For these experiments mice were first placed in metabolic cages to collect urine for 4 hours without any treatment. After this initial collection, the mice were treated with DRAinh-A270 (10 mg/kg) or vehicle intraperitoneally, and given sodium oxalate ([…], in water) by oral gavage at zero time. Urine was collected for the next 4 hours in metabolic cages.

[2] = Pharmacokinetics in mice, serum LC/MS; conditions: for oral bioavailability / bioavailability: 5 mg/kg (A1, A260) or 10 mg/kg (A270), mice; for bioavailability: mouse, serum, po, n=3, read-out: oral bioavailability (mean±SEM)
Experimental: Pharmacokinetics of the Compound A1(DRAinh-A250) and analogs (DRAinh-A260 and DRAinh-A270) was determined in mice. After single dose intraperitoneal or oral administration (5 mg/kg for Compound A1 and DRAinh-A260, 10 mg/kg for DRAinh-A270), blood samples were collected via retro-orbital puncture at different time points and serum was separated by centrifugation. Compound concentrations were measured in serum using LC/MS. FIGS. 10A, 10B, 10C show the respective serum concentration of Compound A1 (FIG. 10A), DRAinh-A260 (FIG. 10B) and DRAinh-A270 (FIG. 10C) after single oral or intraperitoneal administration at zero time (n=3 mice per compound per administration route). Compound A1 had predicted therapeutic levels for at least 24 hours after single dose oral or intraperitoneal administration. […] (mean±SEM): 53.9±6.5% for Compound A1, 16.4±6.6% for DRAinh-A260, and 39.3±3.5% for DRAinh-A270.

[3] = test system: oxalate nephropathy model in mice; assay: Oxalate nephropathy model induced by high oxalate diet
Experimental: To induce oxalate nephropathy, mice were fed with high oxalate (0.67%) and low calcium (<0.01%) diet as described (Am J Physiol Renal Physiol 310: F785-F795, 2016). […] Mice were started high oxalate diet at Day 0 and treated with Compound A1 (5 mg/kg) or vehicle by oral gavage twice daily starting at Day 0. At Day 14, urine was collected for 24 hours in metabolic cages and centrifuged to examine urine sediment, then mice were euthanized and kidneys were used for histological analysis.
The kidneys harvested at Day 14 were examined for kidney damage using H & E staining, and for crystal deposition using polarized light microscopy.
Similar experiments in oxalate nephropathy model were performed using DRAinh-A270. For these experiments mice had 3-hour urine collections at Day 0, 7 and 14. High oxalate diet was started on Day 0 after initial urine collection and mice were given DRAinh-A270 or vehicle intraperitoneally twice daily for 14 days.

[4] = test system: loperamide-treated wild-type mice; assay: Loperamide-induced constipation model in wild-type mice
Experimental: Female CD1 mice (age 8-10 weeks) were administered loperamide (0.3 mg/kg, intraperitoneally, Sigma-Aldrich) to produce constipation. Compound A1 (DRAinh-A250) (5 mg/kg, in saline containing vehicle (5% DMSO and 10% Kolliphor HS 15; Sigma-Aldrich)), tenapanor (5 mg/kg, in vehicle), both compounds (5 mg/kg each, in vehicle), or vehicle alone were administered by oral gavage 1 hour before loperamide. After loperamide injection, mice were placed individually in metabolic cages with ad libitum access to food and water. Stool samples were collected for 3 h, and total stool weight and number of fecal pellets were quantified. To measure stool water content, stool samples were dried at 80° C. for 24 h and water content was calculated as [wet weight-dry weight]/wet weight. Similar studies were done in cystic fibrosis (CF) mice (ΔF508 homozygous) lacking functional CFTR.
Constipation Model in MiceDRAinh-A260 and DRAinh-A270 were tested in a loperamide-induced constipation model in mice. Female CD1 mice (age 8-10 weeks) were administered loperamide (0.3 mg/kg, intraperitoneally, in 5% ethanol in PBS, 0.1 mg/mL final concentration) to produce constipation and vehicle in control mice. DRAinh-A260 (5 mg/kg, in saline with 5% DMSO and 10% Kolliphor HS 15) or DRAinh-A270 (1, 3 or 10 mg/kg, in PBS with 5% DMSO and 20% (2- hydroxypropyl)-β-cyclodextrin) or vehicle alone were administered by oral gavage 1 hour before loperamide (FIG. 11A). After loperamide injection, mice were placed individually in metabolic cages with free access to food and water. Stool samples were collected for 3 hours, and total stool weight and number of fecal pellets were quantified. To measure stool water content, stool samples were dried at 80° C. for 24 hours and water content was calculated as [wet weight-dry weight]/wet weight.

[5] = 5 mg/kg oral twice daily, Day 14

Row | SMILES | 4 hour urine oxalate/creatinine ratio (hyperoxaluria) ([1]; 5 mg/kg oral gavage with sodium oxalate 1 µmol/kg) | oral bioavailability [2] | time with predicted therapeutic serum levels ([2]; 5 mg/kg single dose oral or intraperitoneal) | bioavailability [2] | insoluble urine sediment [3, 5] | kidney damage, H & E staining [3, 5] | renal crystal deposition, polarized light microscopy [3, 5] | three-hour stool weight, number of pellets and stool water content ([4]; 5 mg/kg oral gavage 1 hour before loperamide, wild-type mice) | 4-hour urine oxalate/creatinine ratio (hyperoxaluria) ([1]; 10 mg/kg intraperitoneally, sodium oxalate 2.5 µmol/kg oral) | time with predicted therapeutic serum concentrations ([2]; 10 mg/kg single dose oral or intraperitoneal) | development of renal failure ([3]; intraperitoneally twice daily for 14 days) | body weight change compared to Day 0 ([3]; intraperitoneally twice daily for 14 days, Day 7 and Day 14) | 3-hour urine oxalate / creatinine ratio ([3]; intraperitoneally twice daily, Day 7 vs Day 0) | serum creatinine ([3]; intraperitoneally twice daily, Day 14) | stool parameters / diarrhea in control mice ([4]; 10 mg/kg oral, mice not treated with loperamide) | stool weight, pellet number and water content, dose-dependence ([4]; 1, 3 or 10 mg/kg oral gavage 1 hour before loperamide)
1 | Cc1c(CC(=O)O)c(=O)oc2c(C)c(OCc3cccc(Br)c3)ccc12 [Compound A1] | largely prevented hyperoxaluria | 54% | at least 24 hours | 53.9 ± 6.5% | greatly reduced; also recorded: greatly reduces urine sediment | prevention of kidney damage; also recorded: prevents renal damage | prevention of crystal deposition; also recorded: prevents renal crystal deposition | partially prevented; also recorded: comparably reduced signs of constipation; also recorded: reduces loperamide-induced constipation | – | – | – | – | – | – | – | –
2 | Cc1c(CC(=O)O)c(=O)oc2c(C)c(OCc3cccc(I)c3)ccc12 [DRAinh-A270] | – | 39% | – | 39.3 ± 3.5% | – | – | – | – | largely prevented hyperoxaluria | for several days | prevents development of renal failure; also recorded: prevents weight loss, hyperoxaluria and renal failure | maintained their weight better; also recorded: prevents weight loss, hyperoxaluria and renal failure | largely prevented development of hyperoxaluria; also recorded: prevents weight loss, hyperoxaluria and renal failure | normal serum creatinine | did not affect stool parameters or cause diarrhea | dose-dependence in normalizing stool weight and pellet number, and water content; also recorded: normalizes stool water content even at low doses
